Experimental data published in PubChem BioAssay (NCI).
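Protocol summary: plate cells (96-well), add compound at 5 concentrations, incubate 48 h, interpolate endpoints linearly. TGI marks complete inhibition of growth.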

How the values were obtained:
Test in all cases: growth of human tumour cells (NCI), 48 h
HT29 colon = system: HT29 colon
SK-MEL-28 melanoma = system: SK-MEL-28 melanoma
BT-549 breast = system: BT-549 breast
PC-3 prostate = system: PC-3 prostate
OVCAR-4 ovarian = system: OVCAR-4 ovarian
DU-145 prostate = system: DU-145 prostate
A498 renal = system: A498 renal
SW-620 colon = system: SW-620 colon
MCF7 breast = system: MCF7 breast
COLO 205 colon = system: COLO 205 colon
NCI-H226 lung = system: NCI-H226 lung
NCI-H23 lung = system: NCI-H23 lung
RXF 393 renal = system: RXF 393 renal
786-0 renal = system: 786-0 renal
MDA-MB-231 breast = system: MDA-MB-231 breast
M14 melanoma = system: M14 melanoma
HL-60(TB) leukemia = system: HL-60(TB) leukemia

Row | SMILES | TGI (HT29 colon) [µM] | TGI (SK-MEL-28 melanoma) [µM] | TGI (BT-549 breast) [µM] | TGI (PC-3 prostate) [µM] | TGI (OVCAR-4 ovarian) [µM] | TGI (DU-145 prostate) [µM] | TGI (A498 renal) [µM] | TGI (SW-620 colon) [µM] | TGI (MCF7 breast) [µM] | TGI (COLO 205 colon) [µM] | TGI (NCI-H226 lung) [µM] | TGI (NCI-H23 lung) [µM] | TGI (RXF 393 renal) [µM] | TGI (786-0 renal) [µM] | TGI (MDA-MB-231 breast) [µM] | TGI (M14 melanoma) [µM] | TGI (HL-60(TB) leukemia) [µM]
1 | CCOC(=O)c1cn2c(n1)sc1c(Cl)c(Cl)ccc12 | > 45.6 | > 100 | > 100 | > 100 | > 100 | > 100 | > 100 | > 100 | > 100 | 19.1 | 51.6 | > 100 | > 100 | 31.2 | > 100 | > 96.3 | –
2 | COc1cc(OC)nc(-n2c(N)c(C#N)c3ccc([N+](=O)[O-])cc3c2=O)n1 | > 100 | > 100 | > 100 | > 100 | > 100 | > 100 | > 100 | > 100 | > 100 | > 100 | – | > 100 | – | > 100 | > 100 | > 100 | > 100
3 | C/C=C\C(CC(=O)NCCC1CN(S(=O)(=O)c2ccc(C)cc2)c2ccccc21)CC(=O)OC (stereo not drawn) | > 100 | > 100 | > 100 | > 100 | > 100 | > 100 | > 100 | > 100 | > 100 | > 100 | – | > 100 | > 100 | > 100 | > 100 | > 100 | –
4 | CC(C)OCC1CC(CC(=O)Nc2nncs2)C(=O)O1 (stereo not drawn) | > 100 | > 100 | > 100 | > 100 | > 100 | > 100 | – | > 100 | > 100 | > 100 | > 100 | > 100 | – | > 100 | > 100 | > 100 | –
5 | CNc1ccc2c(c1)[C@@]1(C)c3ccccc3[C@@H](C2)N1C | 64.8 | – | 35.9 | > 100 | > 100 | > 100 | 74 | > 100 | > 100 | – | – | 61.5 | 50.8 | 34.3 | 62.6 | 49.6 | 38.5
6 | CC(=O)Oc1ccc(-c2cc3ccccc3oc2=O)cc1 | > 100 | > 100 | > 100 | > 100 | > 100 | > 100 | > 100 | > 100 | > 100 | > 100 | > 100 | > 100 | – | > 100 | > 100 | > 100 | > 100
7 | CC(=O)O[C@H]1[C@@H]2OC(=O)[C@@](O)(CC3CCCO3)[C@@H]2CC(=O)[C@](C)(O)CC/C=C(\C)CCC[C@@H]1C (stereo partly drawn) | – | 44.5 | 70.4 | > 100 | > 100 | > 100 | > 100 | 49.2 | > 100 | 34.5 | 32.5 | – | 35.9 | > 100 | 63 | > 100 | 57.8
8 | Cc1cc(N(CCC#N)CCC#N)ccc1/C(N=Nc1ccc(C(=O)O)cc1)=N\NC(=O)c1cc(Cl)ccc1O | > 100 | – | > 100 | > 100 | 97 | > 100 | 87.7 | – | > 100 | > 100 | 49.9 | > 100 | 78.9 | 39.8 | 63.1 | > 100 | –
9 | CCCCCCC(=O)O[C@H]1CC[C@H]2[C@@H]3CCC4C/C(=N/NC(=O)c5cccc6c(=O)c7ccccc7[nH]c56)C=C(C)[C@]4(C)[C@H]3CC[C@]12C (stereo partly drawn) | > 25 | – | > 25 | > 25 | > 25 | > 25 | – | > 25 | > 25 | > 25 | > 25 | > 25 | – | > 25 | > 25 | > 25 | > 25
10 | COc1cc(-c2cc(-c3ccccc3)nc(-c3c(OC)ccc4c(C)cc(=O)oc34)c2)cc(OC)c1OC | > 100 | – | > 100 | > 100 | > 100 | > 100 | > 100 | > 100 | > 100 | > 100 | > 100 | > 100 | > 100 | > 100 | > 100 | > 100 | > 100
11 | Cc1ccc(/C=C/c2nnc(N/N=C/c3ccc4c(c3)OCO4)[nH]c2=O)cc1 | 53.7 | 30.9 | 33.9 | 43.3 | 36.8 | 38.7 | – | 42.6 | 51.2 | > 100 | 72.5 | 32.5 | > 100 | 27.9 | 29.9 | > 100 | –
12 | COc1ccc(CNC(=O)NCn2cc(-c3ccccc3)nn2)cc1 | > 100 | > 100 | > 100 | > 100 | > 100 | > 100 | – | > 100 | > 100 | > 100 | – | > 100 | – | > 100 | > 100 | > 100 | > 100
13 | O=C(c1ccc(Cl)cc1)N(C(=O)N1CCC(c2ccccc2)CC1)c1ccccc1 | > 100 | > 100 | 73.6 | 73.8 | – | > 100 | 96.5 | > 100 | > 100 | > 100 | 99.7 | > 100 | 62.5 | > 100 | > 100 | 88.2 | 61.5
14 | Cc1nn(C(=O)c2ccc(Cl)cc2)c2c1C(c1ccccc1[N+](=O)[O-])SC(N)=N2 (stereo not drawn) | > 10 | – | > 10 | > 10 | > 10 | > 10 | – | > 10 | > 10 | > 10 | > 10 | > 10 | 2.25 | > 10 | > 10 | > 10 | > 10
15 | CC(C)(C)OC(=O)N1CCC(C(=O)O)CC1 | > 100 | > 100 | > 100 | > 100 | > 100 | > 100 | > 100 | > 100 | > 100 | > 100 | – | > 100 | – | > 100 | > 100 | > 100 | > 100
16 | C[C@@H](c1ccccc1)N1CN(C(=O)OCc2ccccc2)C(C)(C)CC1=O | > 100 | > 100 | > 100 | > 100 | > 100 | > 100 | – | > 100 | > 100 | > 100 | > 100 | > 100 | 70.9 | > 100 | > 100 | > 100 | > 100
17 | COC(=O)CNS(=O)(=O)c1ccc(-c2c3nc(c(-c4ccc(S(=O)(=O)NCC(=O)OC)cc4)c4ccc([nH]4)c(-c4ccc(S(=O)(=O)NCC(=O)OC)cc4)c4nc(c(-c5ccc(S(=O)(=O)NCC(=O)OC)cc5)c5ccc2[nH]5)C=C4)C=C3)cc1 | > 100 | > 100 | > 100 | > 100 | > 100 | > 100 | > 100 | > 100 | > 100 | > 100 | – | > 100 | > 100 | > 100 | > 100 | 41.9 | > 100
18 | CC1=NN(c2cccc(Cl)c2)C2(SCC(=O)N2c2nc3ccccc3s2)/C1=C\c1cccs1 (stereo not drawn) | 46.6 | 85.6 | 37.1 | 65.6 | 66 | > 100 | 59 | > 100 | > 100 | – | 50.7 | 43.5 | 51.6 | 41.1 | 87 | 89.3 | 56
19 | C[C@H](NC(=O)c1ccc(CNC(=O)/C=C/c2cccc(Oc3ccccc3)c2)cc1)c1ccccc1 | > 100 | > 100 | > 100 | > 100 | > 100 | > 100 | > 100 | > 100 | > 100 | > 100 | > 100 | > 100 | 80.3 | > 100 | > 100 | > 100 | –
20 | O=C1CSC(c2ccc([N+](=O)[O-])cc2)N1c1ccc(-n2c(-c3ccccc3)nc3ccccc3c2=O)cc1 (stereo not drawn) | > 100 | > 100 | > 100 | > 100 | 95.7 | > 100 | > 100 | > 100 | > 100 | > 100 | > 100 | > 100 | – | > 100 | > 100 | > 100 | > 100
21 | CC(C)(C)c1cc(C2=NNC(c3ccccc3)C2)cc(C(C)(C)C)c1O (stereo not drawn) | 50.3 | 31.5 | 32 | 27.7 | 33.2 | 30.3 | 29.7 | 34.3 | 27.7 | 31.7 | 32.8 | 33.7 | 23.2 | 29.6 | 27.5 | 34.1 | –
22 | CC[C@]1(Cc2ccc(OC)c(OC)c2)C=[N+]([O-])O[C@H](OC2CCCC2(c2ccccc2)c2ccccc2)[C@@H]1OC(C)=O (stereo partly drawn) | 4.55 | 4.81 | 27.9 | 18.4 | 25.5 | 13.1 | – | > 100 | 8 | 12 | – | 19.9 | 4.35 | 3.67 | > 41.3 | 14.9 | 18.8
23 | O=c1c2nc3ccccc3c(=O)n2ncn1-c1ccccc1Cl | > 100 | > 100 | > 100 | > 100 | > 100 | > 100 | > 100 | > 100 | > 100 | > 100 | > 100 | > 100 | – | > 100 | > 100 | > 100 | > 100
24 | CN(C)CCN(C)c1ccc2c(=O)n(CCN(C)C)c(=O)n3c4ccccc4c(=O)c1c23 | 3.73 | 6.81 | 15 | 21.3 | 2.27 | 1.3 | 5.36 | 8.34 | 11.3 | 3.03 | 1.59 | 2.23 | 11.2 | 10.2 | 4.23 | 6.68 | –
25 | O=C(NCCNCCCNC(=O)c1cc(-c2ccccc2)nc2ccccc12)c1cccc(O)c1O | 22.2 | 18.5 | 11.9 | > 100 | – | > 100 | 55.9 | > 100 | 15.9 | 22.4 | 36.3 | 37.8 | 47.7 | > 100 | > 100 | 10.4 | > 100
26 | CCn1c(SCC(=O)NNC(=S)Nc2ccc([N+](=O)[O-])cc2)nc2ccccc2c1=O | – | > 100 | > 100 | > 100 | > 100 | > 100 | > 100 | > 100 | > 100 | > 100 | > 100 | > 100 | > 100 | > 100 | > 100 | > 100 | > 100
27 | S=C1N(/N=C/c2c3ccccc3cc3ccccc23)C(=Nc2ccccc2)C(=Nc2ccccc2)N1c1ccccc1 | > 100 | > 100 | > 100 | > 100 | – | > 100 | – | > 100 | > 100 | > 100 | > 100 | > 100 | > 100 | > 100 | > 100 | > 100 | –
28 | CCCN(CCCc1ccccc1)CCc1ccc2[nH]c(=S)[nH]c2c1 | – | 51.5 | > 100 | > 100 | > 100 | > 100 | > 100 | > 100 | > 100 | 42.6 | > 100 | > 100 | 76.1 | 25.4 | > 100 | 40 | –
